Data from article PMC12147183, “Lacritin cleavage-potentiated targeting of iron - respiratory reciprocity promotes bacterial death” (The Journal of Biological Chemistry, 2025).
≈ marks a conversion by molar mass, not a printed value. Peptide text beside a SMILES is read from it.

Experiments:
[1] = Surface plasmon resonance on chip-supported Gram-positive model membrane; format: binding; settings: highest N-104 concentration, PC:PG Gram-positive model membrane
P. aeruginosa PA14 [2] = assay: SYTOX Orange PA14 membrane disruption assay; settings: 25 μM peptide, PA14 10^7 cfu/ml, 1 h at 35 °C, 5 μM SYTOX Orange; positive control 70% ethanol
wild-type E. coli K-12 = assay: Alamar Blue viability assay of wild-type E. coli K-12; format: cell-based, Escherichia coli; settings: 100 μM, wild-type E. coli K-12 10^6 cfu/ml, 37 °C, hourly, n = 3
thrombin (F2) = thrombin (F2) (Homo sapiens, UniProt P00734); assay: Affinity pulldown of human tears on peptide columns; format: binding; settings: pooled human basal tears, 300 mOsm/l, 0.5 M KCl eluant, anti-F2 immunodetection
Experimental: Studies in this work abide by the Declaration of Helsinki principles. As per UVA IRB protocol 18,592, consented normal human volunteers were subjected to 0.5% proparacaine anesthesia of the eye to minimize reflex tearing. Human basal tears were then wicked for 5 min onto filter paper-like Schirmer strips. Those that had wicked a distance of at least 12 mm were subjected to 4 °C elution with 10 mM Na2HPO4, 1.8 mM KH2PO4, 2.7 mM KCl, 137 mM NaCl (pH 7.2) for a final total pooled tear volume of 170 μl. The pool was diluted five-fold in 10 mM Na2HPO4, 1.8 mM KH2PO4, 2.7 mM KCl, and 137 mM NaCl (pH 7.2) with protease inhibitors and subjected to end-over-end mixing with a 100 μl precolumn of Pierce Agarose followed by equal division by protein concentration into each of 100 μl of N-104 or C-95 columns. The solution was mixed for 5 h at 4 °C. Columns were subjected to washing with 10 mM Na2HPO4, 1.8 mM KH2PO4, 2.7 mM KCl, and 137 mM NaCl (pH 7.2) containing the same protease inhibitors followed by elution using KCl (0.3, 0.5, and 1.0 M KCl) in the same buffer. The 0.5 M KCl eluate was submitted for mass spectrometric sequencing by UVA's Biomolecular Analysis Facility, as previously noted. The acquired data were analyzed by database searching using the Sequest search algorithm against UniProt H. sapiens. […]

P. aeruginosa PA14 [3] = test system: P. aeruginosa PA14
Experimental: After overnight incubation at 37 °C, plates were analyzed on a ChemiDoc XRS (Bio-Rad).

[4] = test system: Keio E. coli K-12 single gene knockout strains; assay: Forward genetic N-104 resistance screen of Keio single gene knockouts; format: cell-based, Escherichia coli; settings: 100 μM N-104, slope 5 h after/5 h before; resistance cutoff 0.75
Experimental: We took advantage of the Alamar Blue viability assay ([85]). Briefly, wells of deep 96-well plates (1896–2000, USA Scientific) each containing 0.8 ml of LB broth supplemented with 50 μg/ml of kanamycin (BP906–5, Fisher Scientific) were singly inoculated with 10 μl aliquots of each of the 3884 Keio E. coli K-12 single gene knockout strains for 16 h at 37 °C on a rotator (160 rpm). A total of 200 μl of a 1:1000 dilution of each (∼10^6 cfu/ml) in 1 mM Na2HPO4, 0.18 mM KH2PO4, 0.27 mM KCl, 13.7 mM NaCl (pH 7.2) containing 10% Alamar Blue (DAL1100, Invitrogen) in wells of black 96-well plates was monitored hourly for 5 h in a SpectraMax M3 plate reader (Molecular Devices) with 3 s agitation before simultaneously reading from the well bottoms at medium PMT voltage with a 590 nm cutoff filter and six flashes per read for the Alamar Blue fluorescence signal (excitation/detection = 560/590 nm). The same hourly monitoring continued for 30 h after the addition of N-104, N-80/C-25 (negative control), or ampicillin (positive control; BP1760–5; Fisher Scientific) at a final concentration of 100 μM each. Data for each of the 3,884 strains were normalized to untreated with 10% Alamar Blue background subtracted as the ratio of the viability slope during the first 5 hours of N-104 treatment versus the slope 5 h previous.

[5] = Surface plasmon resonance on chip-supported Gram-negative model membrane
PA14 fed to C. elegans = format: in vivo, Caenorhabditis elegans
Experimental: L1 stage C. elegans worms on Nematode Growth Medium (NGM) plates with E. coli OP50 as a food source were cultivated at room temperature in a humidified chamber until maturation into sterile young adults ([84]), carefully washed off with M9 minimal salts and then collected by pelleting (1200g, 2 min). […] After 3 days, bacteria and debris were removed leaving 50 μl per well of worms to which 50 μl of 6 μM SYTOX Orange was added in M9 minimal salts. The next day, images were captured using both transmission and epifluorescence (excitation/detection = 535/610 nm) on an AMG EVOS FL AMF-4301 fluorescence microscope (Thermo Fisher Scientific).

## CC(=O)N[C@@H](C)C(=O)N[C@@H](CCC(N)=O)C(=O)N[C@@H](CCCCN)C(=O)N[C@@H](CC(C)C)C(=O)N[C@@H](CC(C)C)C(=O)N[C@@H](CCCCN)C(=O)N[C@@H](CCCCN)C(=O)N[C@@H](Cc1ccccc1)C(=O)N[C@@H](CO)C(=O)N[C@@H](CC(C)C)C(=O)N[C@@H](CC(C)C)C(=O)N[C@@H](CCCCN)C(=O)N1CCC[C@H]1C(=O)N[C@@H](Cc1c[nH]c2ccccc12)C(=O)N[C@@H](C)C(=O)O [N-104] (Ac-AQKLLKKFSLLKPWA-OH)
[1]
  SPR response after buffer wash versus baseline: slightly below baseline
P. aeruginosa PA14 [2]
  membrane disruption (SYTOX Orange uptake): no SYTOX Orange uptake was observed
wild-type E. coli K-12
  bacterial metabolic activity (Alamar Blue): inhibitory
Thrombin (F2)
  binding of tear thrombin to immobilized peptide: binds thrombin
P. aeruginosa PA14 [3]; 0, 2 or 5 μM N-104, 10^6 cfu/ml, n = 3
  N-104 resistance of PA14 ΔyaiW in CFU assay: partially resistant
P. aeruginosa PA14 [3]; 0 to 400 μM N-104 in 30 or 300 mOsm/l phosphate buffer, 8 h, n = 3
  bactericidal efficacy versus osmolarity: diminishes as osmolarity increases
P. aeruginosa PA14 [3]; PA14, 8 h
  minimum inhibitory concentration (MIC): 2 µM (≈ 3.63 µg/mL)
[4]
  treated:untreated metabolic slope ratio, ΔSbmA E. coli: 0.69
  treated:untreated metabolic slope ratio, ΔYaiW E. coli: 0.70
[5]; 2-25 μM N-104, PC:PG:PE and PC:PG membranes
  membrane lysis or disruption concluded from SPR: not membrane lytic nor substantially membrane disruptive
[5]; highest N-104 concentration (25 μM), flow 30 μl/min, 600 s, n = 4
  SPR response after buffer wash versus baseline: remained slightly elevated over baseline
PA14 fed to C. elegans; 0 or 50 μM N-104, 5 h, 10^7 cfu/ml, n = 3
  N-104 resistance of PA14 ΔyaiW in C. elegans survival assay: partially resistant
PA14 fed to C. elegans; 100 μM N-104 without PA14, 3 days
  viability of C. elegans fed N-104 alone: did not affect viability
PA14 fed to C. elegans; PA14 10^7 cfu/ml treated 5 h with 100 μM peptide (legend; method says 50 μM), fed to 50 worms for 3 days, SYTOX Orange, n = 3
  survival of C. elegans fed peptide-treated PA14: fully survived
